Reference: patent US10189838B2, “Aza-oxo-indoles for the treatment and prophylaxis of respiratory syncytial virus infection” (Hoffmann-La Roche Inc., priority 2013, dated 2019)
pEC50: −log10 of the molar value.

Test system: RSV Long strain
Assay: Viral cytopathic effect (CPE) assay, RSV Long strain
Type: cell-based, Respiratory Syncytial Virus
Conditions: cell viability after 6 days (Cell Counting kit-8)
Outline: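 Cells in DMEM with 10% FBS infected next day with RSV Long (A subtype) at a dose giving ~80–90% CPE after 6 days, alongside half-log compound dilutions. Viability at day 6 by CCK-8, absorbance 450 nm referenced to 630 nm; EC50 is concentration giving 50% of maximal protection.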

[1] = human respiratory syncytial virus, 144 h

`O=C(CCn1c(CN2C(=O)C3(CC3)c3ccncc32)cc2cc(Cl)ccc21)NS(=O)(=O)C1CC1` [Example 19-1, 3-{5-Chloro-2-[(2′-oxospiro[cyclopropane-1,3′-pyrrolo[2,3-c]pyridin]-1′(2′H)-yl)methyl]-1H-indol-1-yl}-N-(cyclopropylsulfonyl)propanamide] showed a pEC50 [1] of 5.93.

With `CN(C(=O)CCn1c(CN2C(=O)C3(CC3)c3ccncc32)cc2cc(Cl)ccc21)S(=O)(=O)C1CC1` [Example 19-2, 3-{5-Chloro-2-[(2′-oxospiro[cyclopropane-1,3′-pyrrolo[2,3-c]pyridin]-1′(2′H)-yl)methyl]-1H-indol-1-yl}-N-(cyclopropylsulfonyl)-N-methylpropanamide] the pEC50 [1] was 7.23.

For `CN(C(=O)CCn1c(CN2C(=O)C3(CC3)c3ccncc32)cc2cc(Cl)ccc21)S(C)(=O)=O` [Example 19-3, 3-{5-Chloro-2-[(2′-oxospiro[cyclopropane-1,3′-pyrrolo[2,3-c]pyridin]-1′(2′H)-yl)methyl]-1H-indol-1-yl}-N-methyl-N-(methylsulfonyl)propanamide], the pEC50 [1] was 7.33.

`O=C1CNC(=O)N1CCn1c(CN2C(=O)C3(CC3)c3ccncc32)cc2cc(Cl)ccc21` [Example 20, 3-(2-{5-Chloro-2-[(2′-oxospiro[cyclopropane-1,3′-pyrrolo[2,3-c]pyridin]-1′(2′H)-yl)methyl]-1H-indol-1-yl}ethyl)imidazolidine-2,4-dione] gave a pEC50 [1] of 5.46.

`O=C1N(Cc2cc3cc(Cl)ccc3n2CCCN2CC[C@@H](O)C2)c2cnccc2C12CC2` [Example 21, 1′-[(5-Chloro-1-{3-[(3R)-3-hydroxypyrrolidin-1-yl]propyl}-1H-indol-2-yl)methyl]spiro[cyclopropane-1,3′-pyrrolo[2,3-c]pyridin]-2′(1′H)-one] gave a pEC50 [1] of 6.26.

`CCS(=O)(=O)CCCn1c(CN2C(=O)C3(CC3)c3ccncc32)cc2cc(Cl)ccc21` [Example 22-1, 1′-({5-Chloro-1-[3-(ethylsulfonyl)propyl]-1H-indol-2-yl}methyl)spiro[cyclopropane-1,3′-pyrrolo[2,3-c]pyridin]-2′(1′H)-one] was tested, and the pEC50 [1] was 8.52.

`CS(=O)(=O)CCCn1c(CN2C(=O)C3(CC3)c3cccnc32)cc2cc(Cl)ccc21` [Example 22-2, 1′-({5-Chloro-1-[3-(methylsulfonyl)propyl]-1H-indol-2-yl}methyl)spiro[cyclopropane-1,3′-pyrrolo[2,3-b]pyridin]-2′(1′H)-one] gave a pEC50 [1] of 7.06.

`CS(=O)(=O)CCCn1c(CN2C(=O)C3(CC3)c3ccncc32)cc2cc(Cl)ccc21` [Example 22-3, 1′-({5-Chloro-1-[3-(methylsulfonyl)propyl]-1H-indol-2-yl}methyl)spiro[cyclopropane-1,3′-pyrrolo[2,3-c]pyridin]-2′(1′H)-one] was tested, and the pEC50 [1] was 8.52.

`CCS(=O)(=O)CCCn1c(CN2C(=O)C3(CC3)c3ccncc32)cc2cc(Cl)cnc21` [Example 23, 1′-({5-Chloro-1-[3-(ethylsulfonyl)propyl]-1H-pyrrolo[2,3-b]pyridin-2-yl}methyl)spiro[cyclopropane-1,3′-pyrrolo[2,3-c]pyridin]-2′(1′H)-one] was tested, and the pEC50 [1] was 7.20.

`O=C1N(Cc2cc3cc(Cl)ccc3n2CCN2CCNCC2)c2cnccc2C12CC2` [Example 24-1, 1′-({5-Chloro-1-[2-(piperazin-1-yl)ethyl]-1H-indol-2-yl}methyl)spiro[cyclopropane-1,3′-pyrrolo[2,3-c]pyridin]-2′(1′H)-one] was tested, and the pEC50 [1] was 7.17.

In the case of `O=C1N(Cc2cc3cc(Cl)ccc3n2CCCS(=O)(=O)N2CCNCC2)c2cnccc2C12CC2` [Example 24-2, 1′-({5-Chloro-1-[3-(piperazin-1-ylsulfonyl)propyl]-1H-indol-2-yl}methyl)spiro[cyclopropane-1,3′-pyrrolo[2,3-c]pyridin]-2′(1′H)-one], the pEC50 [1] was 7.82.

Work on `O=C1N(Cc2cc3cc(Cl)ccc3n2CCCS(=O)(=O)N2C[C@H]3C[C@@H]2CN3)c2cnccc2C12CC2` [Example 24-3, 1′-[(5-Chloro-1-{3-[(1R,4R)-2,5-diazabicyclo[2.2.1]hept-2-ylsulfonyl]propyl}-1H-indol-2-yl)methyl]spiro[cyclopropane-1,3′-pyrrolo[2,3-c]pyridin]-2′(1′H)-one] yielded a pEC50 [1] of 7.72.

`O=C1CNCCN1CCCn1c(CN2C(=O)C3(CC3)c3ccncc32)cc2cc(Cl)ccc21` [Example 24-4, 1′-({5-Chloro-1-[3-(2-oxopiperazin-1-yl)propyl]-1H-indol-2-yl}methyl)spiro[cyclopropane-1,3′-pyrrolo[2,3-c]pyridin]-2′(1′H)-one] showed a pEC50 [1] of 7.52.

In the case of `NCCn1c(CN2C(=O)C3(CC3)c3ccncc32)cc2cc(Cl)ccc21` [Example 24-5, 1′-{[1-(2-Aminoethyl)-5-chloro-1H-indol-2-yl]methyl}spiro[cyclopropane-1,3′-pyrrolo[2,3-c]pyridin]-2′(1′H)-one], the pEC50 [1] was 7.19.

`CNS(=O)(=O)CCCn1c(CN2C(=O)C3(CC3)c3ccncc32)cc2cc(Cl)cnc21` [Example 25-1, 3-{5-Chloro-2-[(2′-oxospiro[cyclopropane-1,3′-pyrrolo[2,3-c]pyridin]-1′(2′H)-yl)methyl]-1H-pyrrolo[2,3-b]pyridin-1-yl}-N-methylpropane-1-sulfonamide] showed a pEC50 [1] of 7.24.

`CNS(=O)(=O)CCCn1c(CN2C(=O)C3(CC3)c3ccncc32)cc2cc(Cl)ccc21` [Example 25-2, 3-{5-Chloro-2-[(2′-oxospiro[cyclopropane-1,3′-pyrrolo[2,3-c]pyridin]-1′(2′H)-yl)methyl]-1H-indol-1-yl}-N-methylpropane-1-sulfonamide] gave a pEC50 [1] of 7.96.

With `NS(=O)(=O)CCCn1c(CN2C(=O)C3(CC3)c3ccncc32)cc2cc(Cl)cnc21` [Example 25-3, 3-{5-Chloro-2-[(2′-oxospiro[cyclopropane-1,3′-pyrrolo[2,3-c]pyridin]-1′(2′H)-yl)methyl]-1H-pyrrolo[2,3-b]pyridin-1-yl}propane-1-sulfonamide] the pEC50 [1] was 7.39.

`CC(=O)N1CCN(CCn2c(CN3C(=O)C4(CC4)c4ccncc43)cc3cc(Cl)ccc32)CC1` [Example 26-1, 1′-({1-[2-(4-Acetylpiperazin-1-yl)ethyl]-5-chloro-1H-indol-2-yl}methyl)spiro[cyclopropane-1,3′-pyrrolo[2,3-c]pyridin]-2′(1′H)-one] was tested, and the pEC50 [1] was 7.60.

For `CC(=O)NS(=O)(=O)CCCn1c(CN2C(=O)C3(CC3)c3ccncc32)cc2cc(Cl)cnc21` [Example 26-2, N-[(3-{5-Chloro-2-[(2′-oxospiro[cyclopropane-1,3′-pyrrolo[2,3-c]pyridin]-1′(2′H)-yl)methyl]-1H-pyrrolo[2,3-b]pyridin-1-yl}propyl)sulfonyl]acetamide], the pEC50 [1] was 5.72.

`CC(=O)NCCn1c(CN2C(=O)C3(CC3)c3ccncc32)cc2cc(Cl)ccc21` [Example 26-3, N-(2-{5-Chloro-2-[(2′-oxospiro[cyclopropane-1,3′-pyrrolo[2,3-c]pyridin]-1′(2′H)-yl)methyl]-1H-indol-1-yl}ethyl)acetamide] was tested, and the pEC50 [1] was 7.60.

`CS(=O)(=O)N1CCN(CCn2c(CN3C(=O)C4(CC4)c4ccncc43)cc3cc(Cl)ccc32)CC1` [Example 27-1, 1′-[(5-Chloro-1-{2-[4-(methylsulfonyl)piperazin-1-yl]ethyl}-1H-indol-2-yl)methyl]spiro[cyclopropane-1,3′-pyrrolo[2,3-c]pyridin]-2′(1′H)-one] was tested, and the pEC50 [1] was 8.22.

For `CS(=O)(=O)NCCn1c(CN2C(=O)C3(CC3)c3ccncc32)cc2cc(Cl)ccc21` [Example 27-2, N-(2-{5-Chloro-2-[(2′-oxospiro[cyclopropane-1,3′-pyrrolo[2,3-c]pyridin]-1′(2′H)-yl)methyl]-1H-indol-1-yl}ethyl)methanesulfonamide], the pEC50 [1] was 7.94.

`CS(=O)(=O)NCCCn1c(CN2C(=O)C3(CC3)c3ccncc32)cc2cc(Cl)ccc21` [Example 27-3, N-(3-{5-Chloro-2-[(2′-oxospiro[cyclopropane-1,3′-pyrrolo[2,3-c]pyridin]-1′(2′H)-yl)methyl]-1H-indol-1-yl}propyl)methanesulfonamide] was tested, and the pEC50 [1] was 6.30.

Work on `N=C(N)NCCn1c(CN2C(=O)C3(CC3)c3ccncc32)cc2cc(Cl)ccc21` [Example 28] yielded a pEC50 of 7.19.

`O=C1N(Cc2cc3cc(Cl)ccc3n2CCCNCCO)c2cnccc2C12CC2` [Example 29, 1′-[(5-Chloro-1-{3-[(2-hydroxyethyl)amino]propyl}-1H-indol-2-yl)methyl]spiro[cyclopropane-1,3′-pyrrolo[2,3-c]pyridin]-2′(1′H)-one] was tested, and the pEC50 [1] was 6.61.

`COC(=O)NCCCn1c(CN2C(=O)C3(CC3)c3ccncc32)cc2cc(Cl)ccc21` [Example 30, Methyl(3-{5-chloro-2-[(2′-oxospiro[cyclopropane-1,3′-pyrrolo[2,3-c]pyridin]-1′(2′H)-yl)methyl]-1H-indol-1-yl}propyl)carbamate] was tested, and the pEC50 [1] was 7.70.

For `O=C(NCC(F)(F)F)OCCCn1c(CN2C(=O)C3(CC3)c3ccncc32)cc2cc(Cl)ccc21` [Example 31, 3-{5-Chloro-2-[(2′-oxospiro[cyclopropane-1,3′-pyrrolo[2,3-c]pyridin]-1′(2′H)-yl)methyl]-1H-indol-1-yl}propyl(2,2,2-trifluoroethyl)carbamate], the pEC50 [1] was 7.28.

Work on `CCS(=O)(=O)CCc1c(CN2C(=O)C3(CC3)c3cccnc32)[nH]c2cc(Cl)ccc12` [Example 32-1, 1′-({6-Chloro-3-[2-(ethylsulfonyl)ethyl]-1H-indol-2-yl}methyl)spiro[cyclopropane-1,3′-pyrrolo[2,3-b]pyridin]-2′(1′H)-one] yielded a pEC50 [1] of 8.05.

In the case of `CS(=O)(=O)CCc1c(CN2C(=O)C3(CC3)c3ccncc32)[nH]c2cc(Cl)ccc12` [Example 32-2, 1′-({6-Chloro-3-[2-(methylsulfonyl)ethyl]-1H-indol-2-yl}methyl)spiro[cyclopropane-1,3′-pyrrolo[2,3-c]pyridin]-2′(1′H)-one], the pEC50 [1] was 8.30.

Work on `CS(=O)(=O)CCCc1c(CN2C(=O)C3(CC3)c3ccncc32)[nH]c2cc(Cl)ccc12` [Example 33, 1′-({6-Chloro-3-[3-(methylsulfonyl)propyl]-1H-indol-2-yl}methyl)spiro[cyclopropane-1,3′-pyrrolo[2,3-c]pyridin]-2′(1′H)-one] yielded a pEC50 [1] of 8.22.
